Key:
[1] = test system: MDA-MB-468 tumors; assay: Radioactivity metabolite characterization (radio-HPLC of tumor extracts); type: in vivo, mouse; settings: 24 h post iv
Experimental: MDA-MB-468 tumor xenografts were established on the forelimbs of female athymic nude mice (Hsd:Athymic Nude-Foxn1nu; Envigo; 6 weeks old; RRID:MGI:5652489) by subcutaneous (s.c.) injection of 5 × 10^6 cells in a 200 µl cell suspension of a 1:1 v/v mixture of PBS with reconstituted basement membrane (BD Matrigel^TM, Collaborative Biomedical Products Inc., Bedford, MA). […] After 24 h, tumors were harvested and weighed prior to homogenization in acetonitrile/H2O (3:7) using Bullet Blender Tissue Homogenizer (Next Advance Inc.). Tumor-associated radioactivity was extracted in methylene chloride, and the organic layer was separated and dried under vacuum. Samples were reconstituted in 10% CH3CN in 0.1% HCOOH in water were analyzed using Shimadzu (Columbia, Maryland USA) HPLC system equipped with binary pumps LC-20AB, UV detector and sodium iodide radioactivity detector connected to flow-ram (Lab Logic, Tampa, FL) and 250 × 4.6 mm Phenomenex Luna (Torrance, CA) C-18 HPLC column (10 µM, 100 A).

[2] = test system: MDA-MB-468 tumors; assay: In vivo biodistribution of [131I]-PU-HZ151 (gamma counting); design: species or system mouse; key to Biodistribution, Lung / Biodistribution, Heart / Biodistribution, Muscle / Biodistribution, Blood / Biodistribution, Bone / Biodistribution, Brain / Biodistribution, tumor: percent injected dose per gram tissue (%ID/g); Biodistribution, Tumor - S / Biodistribution, Tumor - L: unit: %ID/g; settings: mean
Experimental: Activity in the syringe before and after administration was assayed in a dose calibrator (CRC-15R; Capintec) to determine by difference the actual activity administered to each animal. Animals were euthanized by CO2 asphyxiation at different time points post-administration of the tracer and organs including tumors were harvested and weighed. […] Count data were background and decay-corrected to the time of injection, and the percent injected dose per gram (%ID g^−1) for each tissue sample was calculated by using a measured calibration factor to convert count rate to activity and the activity was normalized to the activity injected and the mass of sample assayed to yield the activity concentration in %ID g^−1.

Q: Which results are given for `CC(C)(C)CNCCn1c(Sc2cc3c(cc2[131I])OCO3)nc2c(N)ncnc21` [[131I]-PU-HZ151]?
A: species in tumor extract [1]: only [^131I]-PU-HZ151 contributed to tumor-associated radioactivity; Biodistribution, Blood ([2]; 1 h): 0.732; Biodistribution, Bone ([2]; 1 h): 0.55; Biodistribution, Brain ([2]; 1 h): 0.397; Biodistribution, Heart ([2]; 1 h): 0.402; Biodistribution, Lung ([2]; 1 h): 0.666; Biodistribution, Muscle ([2]; 1 h): 0.29; Biodistribution, tumor ([2]; 1 h): 1.745; Biodistribution, Blood ([2]; 4 h): 0.1086; Biodistribution, Bone ([2]; 4 h): 0.07; Biodistribution, Brain ([2]; 4 h): 0.015; Biodistribution, Heart ([2]; 4 h): 0.063; Biodistribution, Lung ([2]; 4 h): 0.296; Biodistribution, Muscle ([2]; 4 h): 0.034; Biodistribution, Tumor - L ([2]; 4 h): 0.5106; Biodistribution, Tumor - S ([2]; 4 h): 0.5895; Biodistribution, Blood ([2]; 6 h): 0.08349; Biodistribution, Bone ([2]; 6 h): 0.05; Biodistribution, Brain ([2]; 6 h): 0.01; Biodistribution, Heart ([2]; 6 h): 0.045; Biodistribution, Lung ([2]; 6 h): 0.237; Biodistribution, Muscle ([2]; 6 h): 0.044; Biodistribution, Tumor - L ([2]; 6 h): 0.4547; Biodistribution, Tumor - S ([2]; 6 h): 0.5075; Biodistribution, tumor ([2]; 6 h): 0.5792; Biodistribution, Blood ([2]; 8 h): 0.05883; Biodistribution, Bone ([2]; 8 h): 0.033; Biodistribution, Brain ([2]; 8 h): 0.005; Biodistribution, Heart ([2]; 8 h): 0.027; Biodistribution, Lung ([2]; 8 h): 0.129; Biodistribution, Muscle ([2]; 8 h): 0.023; Biodistribution, Tumor - L ([2]; 8 h): 0.3061; Biodistribution, Tumor - S ([2]; 8 h): 0.2819; Biodistribution, Blood ([2]; 12 h): 0.02368; Biodistribution, Bone ([2]; 12 h): 0.012; Biodistribution, Brain ([2]; 12 h): 0.002; Biodistribution, Heart ([2]; 12 h): 0.009; Biodistribution, Lung ([2]; 12 h): 0.04; Biodistribution, Muscle ([2]; 12 h): 0.006; Biodistribution, Tumor - L ([2]; 12 h): 0.2552; Biodistribution, Tumor - S ([2]; 12 h): 0.2535; Biodistribution, Blood ([2]; first column group, 24 h): 0.002331; Biodistribution, Bone ([2]; first column group, 24 h): 0.016; Biodistribution, Brain ([2]; first column group, 24 h): 0.001; Biodistribution, Heart ([2]; first column group, 24 h): 0.003; Biodistribution, Lung ([2]; first column group, 24 h): 0.012; Biodistribution, Muscle ([2]; first column group, 24 h): 0.002; Biodistribution, Tumor - L ([2]; first column group, 24 h): 0.2045; Biodistribution, Tumor - S ([2]; first column group, 24 h): 0.1544; Biodistribution, Bone ([2]; first column group, 48 h): 0.004; Biodistribution, Brain ([2]; first column group, 48 h): 0; Biodistribution, Heart ([2]; first column group, 48 h): 0.002; Biodistribution, Lung ([2]; first column group, 48 h): 0.004; Biodistribution, Muscle ([2]; first column group, 48 h): 0.001; Biodistribution, Tumor - L ([2]; first column group, 48 h): 0.08346; Biodistribution, Tumor - S ([2]; first column group, 48 h): 0.08811; Biodistribution, Blood ([2]; second column group, 24 h): 0.0041; Biodistribution, Bone ([2]; second column group, 24 h): 0.012; Biodistribution, Brain ([2]; second column group, 24 h): 0.00319; Biodistribution, Heart ([2]; second column group, 24 h): 0.0138; Biodistribution, Lung ([2]; second column group, 24 h): 0.061; Biodistribution, Muscle ([2]; second column group, 24 h): 0.002; Biodistribution, tumor ([2]; second column group, 24 h): 0.1057; Biodistribution, Blood ([2]; second column group, 48 h): 0.00228; Biodistribution, Bone ([2]; second column group, 48 h): 0.0182; Biodistribution, Brain ([2]; second column group, 48 h): 0.00219; Biodistribution, Heart ([2]; second column group, 48 h): 0.00513; Biodistribution, Lung ([2]; second column group, 48 h): 0.0472; Biodistribution, Muscle ([2]; second column group, 48 h): 0.018; Biodistribution, tumor ([2]; second column group, 48 h): 0.03983
